Test results from patent US20050209157A1, “Short bioactive peptides and methods for their use” (priority 2001, published 2005).
Where two headings read alike, the source gives them in different places. No end group written: not given here.

Experiments:
in vitro [1] = assay type: cell-based, human; conditions: human, human red blood cells, pH 7, hemolytic assay, concentration at 50% hemolysis, 1 hour at 37° C.; read-out: LD50
BMKC = experiment: Anti-cancer assay, MTT, LD50; assay type: cell-based; conditions: BMKC cloned melanoma line, 24 hours with peptide
Source text: (§1) Numbers are LD50 values (μg/mL).

PC3 = experiment: Anti-cancer assay, MTT, LD50; assay type: cell-based; conditions: 24 hours with peptide, prostate adenocarcinoma
Source text: as §1

H1299 = experiment: Anti-cancer assay, MTT, LD50; assay type: cell-based; conditions: 24 hours with peptide, lung large cell carcinoma
Source text: as §1

SW480 = experiment: Anti-cancer assay, MTT, LD50; assay type: cell-based; conditions: SW480 colon adenocarcinoma line, 24 hours with peptide
Source text: as §1

MCF7 = experiment: Anti-cancer assay, MTT, LD50; assay type: cell-based; conditions: MCF7 breast adenocarcinoma line, MTT, 24 hours with peptide
Source text: as §1

HeLaS3 = experiment: Anti-cancer assay, MTT, LD50; assay type: cell-based; conditions: 24 hours with peptide, cervical carcinoma
Source text: as §1

[2] = system: yeast (Saccharomyces cerevisiae); experiment: Antimicrobial assay I, yeast assay in RPMI 1640; assay type: cell-based; conditions: RPMI 1640 media
[3] = system: Staphylococcus aureus ATCC 6538; experiment: Antimicrobial assay I, MIC by OD measurement; assay type: cell-based; conditions: 37° C. for 24 hours, absorbance 620 nm
[4] = system: Pseudomonas aeruginosa ATCC 9027; experiment: Antimicrobial assay I, MIC by OD measurement; assay type: cell-based; conditions: 37° C. for 24 hours, absorbance 620 nm
in vitro [5] = conditions: human, WI38 normal lung fibroblast cells, LD50 WI38, WI38 normal lung fibroblast line, MTT, 24 hours with peptide
WI38 = conditions: MTT, 24 hours with peptide; normal fibroblast line
P. aeruginosa = assay type: cell-based, Pseudomonas aeruginosa; conditions: P. aeruginosa H744; MIC of nalidixic acid with peptide at ¼ MIC
Description: (§2) The synergistic effects of the inventive peptides with either chloramphenicol or nalidixic acid against efflux mutants of Pseudomonas aeruginosa were investigated. The MIC values were determined for either nalidixic acid or chloramphenicol alone as baselines. Peptides were added at their ¼ MIC concentration, and the concentration of either nalidixic acid or chloramphenicol to arrive at the MIC was determined. […] The fractional inhibitory concentration (FIC) index was used to determine synergy between peptides and antibiotics. Two-fold serial dilutions of antibiotic were tested in the presence of a constant amount of peptide, equal to one quarter of peptide MIC. The FIC index was determined as follows: FIC=0.25+MICantibiotic in combination/MICantibiotic alone. An FIC index of 0.5 or less is considered as synergy.

P. aeruginosa H374 [6] = assay type: cell-based, Pseudomonas aeruginosa; conditions: for MIC Cm-comb.: MIC of chloramphenicol with peptide at ¼ MIC; for MIC Nal-comb.: MIC of nalidixic acid with peptide at ¼ MIC; for FIC Index: 0.5 or less = synergy
Description: as §2

P. aeruginosa H774 = assay type: cell-based, Pseudomonas aeruginosa; conditions: P. aeruginosa H744; nalidixic acid + peptide at ¼ MIC; 0.5 or less = synergy
Description: as §2

[7] = system: Pseudomonas aeruginosa H187; assay type: cell-based; conditions: Table 15; in µg/mL
E. coli UB1005 = assay type: cell-based, Escherichia coli; conditions: Table 14
S. typhimurium 14028S = assay type: cell-based, Salmonella typhimurium; conditions: Table 14
Candida albicans 105 = assay type: cell-based; conditions: Table 15; in µg/mL
S. epidermidis C621 = assay type: cell-based, Staphylococcus epidermidis; conditions: Table 15
S. aureus (MRSA) = assay type: cell-based, Staphylococcus aureus; conditions: Table 15, strain SAP0017; in µg/mL
P. aeruginosa H374 [8] = assay type: cell-based, Pseudomonas aeruginosa; conditions: Table 14; in µg/mL
[9] = chloramphenicol + peptide at ¼ MIC
[10] = nalidixic acid + peptide at ¼ MIC, FIC=0.25+MIC comb/MIC alone

Substance	HC50 at 1 h (in vitro [1])	LD50 BMKC (BMKC)	PC3 LD50 (PC3)	H1299 LD50 (H1299)	LD50 SW480 (SW480)	LD50 MCF7 (MCF7)	HeLaS3 LD50 (HeLaS3)	yeast (MIC or MFC) [2]	staph6538 (MIC) [3]	paerug9027 (MIC) [4]	CC50 at 24 h (in vitro [5])	WI38 LD50 (WI38)	MIC Nal-comb. (P. aeruginosa)	MIC Cm-comb. (P. aeruginosa H374 [6])	MIC Nal-comb. (P. aeruginosa H374 [6])	FIC Index (P. aeruginosa H374 [6]; [9])	FIC Index (P. aeruginosa H374 [6]; [10])	FIC Index (P. aeruginosa H774)	other results
FAKLLAKALKKFL-NH2 [P118]	700 µg/mL	135 µg/mL	330 µg/mL	74 µg/mL	115 µg/mL	70 µg/mL	87 µg/mL	100 µg/mL	10 µg/mL	100 µg/mL	170 µg/mL	170 µg/mL	624 µg/mL	16 µg/mL	2500 µg/mL	1.25	0.75	1.25	
GIGKFLHAAKKFAKAFVAEIMNS-NH2 [P300, reference compound]	250 µg/mL	130 µg/mL	45 µg/mL	60 µg/mL	60 µg/mL	22 µg/mL	125 µg/mL				52 µg/mL	52 µg/mL	156 µg/mL	16 µg/mL	312 µg/mL				
FAKKLAKKLAKLAL-NH2 [P45, FAKKLAKKLAKLAL-NH2]	700 µg/mL	160 µg/mL	170 µg/mL	330 µg/mL	180 µg/mL	260 µg/mL	160 µg/mL	100 µg/mL	5 µg/mL	100 µg/mL	200 µg/mL	200 µg/mL	624 µg/mL	16 µg/mL	2500 µg/mL	1.25	0.75	1.25	
FAKLLAKALKKL-NH2 [P103]	650 µg/mL	75 µg/mL	330 µg/mL	150 µg/mL	90 µg/mL	46 µg/mL	70 µg/mL	100 µg/mL	10 µg/mL	25 µg/mL	26 µg/mL	26 µg/mL	624 µg/mL	8 µg/mL	625 µg/mL	0.75	0.375	1.25	
FAKLLAKLAKLKL-NH2 [P66]	600 µg/mL	200 µg/mL	170 µg/mL	130 µg/mL	145 µg/mL	90 µg/mL	140 µg/mL	100 µg/mL	5 µg/mL	50 µg/mL	240 µg/mL	240 µg/mL	624 µg/mL	16 µg/mL	5000 µg/mL	1.25	1.25	1.25	
FALALKA-NH2 [P141 (103)]																			MIC P. aeruginosa H187 [7]: >128; MIC E. coli UB1005 (E. coli UB1005): > 128 µg/mL; MIC S. typhimurium 14028S (S. typhimurium 14028S): > 128 µg/mL; MIC C. albicans 105 (Candida albicans 105): >128; MIC S. epidermidis C621 (S. epidermidis C621): > 128 µg/mL; MIC S. aureus SAP0017 (S. aureus (MRSA)): >128; MIC P. aeruginosa H374 (P. aeruginosa H374 [8]): >128
